Laboratory results reported in US20260199427A1 (priority 2021, published 2026).
Several values for one entry are separate records, joined by “and”; a condition that tells them apart may be missing. Equal entries are not always repeated.

Experiments:
[1] = test system: B. anthracis Ames spores (NR3838); parameters: species or system New Zealand White (NZW) rabbits; conditions: rabbit, in vivo
[2] = test system: B. anthracis Ames NR-3838 spores; parameters: species or system New Zealand White (NZW) rabbits; conditions: rabbit, in vivo
[3] = test system: B. anthracis Ames NR-3838 spores; parameters: species or system New Zealand White (NZW) rabbits; conditions: rabbit, in vivo; remark: listed apart in the source
[4] = test system: B. anthracis Ames NR-3838 spores; conditions: rabbit, in vivo
[5] = test system: B. anthracis Ames spores (NR3838); parameters: species or system New Zealand White (NZW) rabbits; conditions: rabbit, in vivo; remark: listed apart in the source
[6] = test system: B. anthracis Ames spores (NR3838); parameters: species or system New Zealand White (NZW) rabbits; conditions: rabbit, in vivo; remark: listed apart in the source
[7] = test system: B. anthracis Ames NR-3838 spores; parameters: species or system New Zealand White (NZW) rabbits; conditions: rabbit, in vivo; remark: listed apart in the source
[8] = test system: B. anthracis Ames NR-3838 spores; parameters: species or system New Zealand White (NZW) rabbits; conditions: rabbit, in vivo; remark: listed apart in the source
B. anthracis = assay: microbe, parasite or virus in culture; format: cell-based; conditions: Bacillus anthracis
[9] = test system: B. anthracis Ames spores (NR3838); parameters: species or system New Zealand White (NZW) rabbits; conditions: rabbit, in vivo; remark: listed apart in the source

| SMILES | B. anthracis bacterial load in lymph node tissue [1] | B. anthracis bacterial load in spleen tissue [1] | survival [2] | Average Bacterial Load (cfu/g), lung [3] | peak of febrile response (core body temperature) [4] | overall survival rate [5] | survival [5] | anthrax-related lesions (histopathology) [6] | average bacterial load in the lung tissue, comparing only the two antibiotic-treated groups [3] | maximum percent weight loss [4] | animals positive for bacteremia [7] | average level of bacteremia, comparing only the two antibiotic-treated groups [7] | anthrax induced lesions (histopathology) [8] | MIC (B. anthracis) | bacteremia [9] |
| --- | --- | --- | --- | --- | --- | --- | --- | --- | --- | --- | --- | --- | --- | --- | --- |
| C[C@H]1COc2c(N3CCN(C)CC3)c(F)cc3c(=O)c(C(=O)O)cn1c23 [Levofloxacin] | 0 cfu/g | 0 cfu/g | 100% | 6.93E+03 cfu/g | ~41 °C | 50% | 100% and 50% |  |  |  |  |  |  |  |  |
| CCCCCCCCCCNCCNC1(C)CC(OC2C(Oc3c4cc5cc3Oc3ccc(cc3Cl)[C@@H](O)[C@@H](NC(=O)[C@@H](CC(C)C)NC)C(=O)N[C@@H](CC(N)=O)C(=O)N[C@H]5C(=O)N[C@H]3C(=O)N[C@H](C(=O)N[C@H](C(=O)O)c5cc(O)c(CNCP(=O)(O)O)c(O)c5-c5cc3ccc5O)[C@H](O)c3ccc(c(Cl)c3)O4)OC(CO)C(O)C2O)OC(C)C1O (some centres unmarked) [Vibativ, N^3″-[2-(decylamino)ethyl]-29-[[(phosphonomethyl)amino]methyl]vancomycin] |  |  | 100% | 1.93E+03 cfu/g | ~41 °C | 67% | 100% and 60% | generally mitigated | significantly (p<0.05) lower | significantly (p<0.05) higher | 2 out of 12 | significantly (p<0.05) lower | mitigation of anthrax induced lesions | < 0.0625 µg/mL | never developed bacteremia at a detectable level |
